Drawing on ChEMBL document CHEMBL1201862, “PubChem BioAssay data set” (2004), this text covers IC50, EC50 and AC50 for ten compounds.

Calls of active or inactive are those of the source.

One assay deals with T1, Cysteine protease ATG4B (Homo sapiens, UniProt Q9Y4P1).
T1 sequence (Q9Y4P1 whole entry): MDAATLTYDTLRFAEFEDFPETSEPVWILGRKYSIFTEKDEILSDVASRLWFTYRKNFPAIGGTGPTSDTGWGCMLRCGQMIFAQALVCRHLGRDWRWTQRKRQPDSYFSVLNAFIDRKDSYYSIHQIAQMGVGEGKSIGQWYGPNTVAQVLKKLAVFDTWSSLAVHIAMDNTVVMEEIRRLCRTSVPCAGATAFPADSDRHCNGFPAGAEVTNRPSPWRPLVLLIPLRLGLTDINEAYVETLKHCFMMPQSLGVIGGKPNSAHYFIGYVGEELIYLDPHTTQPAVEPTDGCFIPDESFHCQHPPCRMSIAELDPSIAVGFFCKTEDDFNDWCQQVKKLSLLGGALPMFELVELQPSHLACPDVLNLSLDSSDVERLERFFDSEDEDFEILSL
Format: functional.

For the next assay, the target named is Phospholipase A2 (Homo sapiens, UniProt P04054). Format: functional.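 Note: confirmatory dose-response counterscreen on phospholipase A2, testing hits that came from an ultra-high-throughput screen for ATG4B inhibitors.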
The target in the next assay is Beta-galactosidase (Escherichia coli, UniProt Q8VNN2). Kind of assay: PubChem AID 485352. The assay is classed as functional.
Assay [1] addresses T2, Type-1 angiotensin II receptor (Homo sapiens, UniProt P30556).
T2 sequence (P30556 whole entry): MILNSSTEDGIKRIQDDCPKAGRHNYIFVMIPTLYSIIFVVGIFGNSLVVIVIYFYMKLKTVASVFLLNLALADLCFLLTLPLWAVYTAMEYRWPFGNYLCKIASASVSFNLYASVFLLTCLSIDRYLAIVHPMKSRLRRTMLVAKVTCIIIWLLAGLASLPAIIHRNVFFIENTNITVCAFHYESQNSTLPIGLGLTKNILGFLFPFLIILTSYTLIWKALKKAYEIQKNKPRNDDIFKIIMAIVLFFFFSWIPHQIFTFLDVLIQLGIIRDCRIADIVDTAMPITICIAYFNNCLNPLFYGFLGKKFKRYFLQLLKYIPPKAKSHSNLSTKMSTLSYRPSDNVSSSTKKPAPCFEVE
As to the kind of experiment: AT1 receptor antagonists, dose response, selectivity assay for APJ receptor antagonist project, cell-based, uHTS hits (AID 463214).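 Note: antagonist potency against angiotensin II stimulated AT1 response.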 Format: functional.

Assay [2] addresses T3, Endoribonuclease toxin MazF (Escherichia coli K-12, UniProt P0AE70).
T3 sequence (P0AE70 whole entry): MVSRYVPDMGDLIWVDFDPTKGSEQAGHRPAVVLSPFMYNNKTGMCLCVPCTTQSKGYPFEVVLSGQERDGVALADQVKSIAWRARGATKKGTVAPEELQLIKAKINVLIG
Kind of assay: MazF toxin RNase activators, dose response, biochemical, fluorescence, single-stranded RNA substrate, uHTS hits (AID 588481). Format: functional.

The target in assay [3] is T3, Endoribonuclease toxin MazF. As to the kind of experiment: fluorescent RNA oligo signal without MazF, dose response, counter-screen for MazEF activator project, biochemical, fluorescence, single-stranded RNase substrate (AID 588502). The assay is classed as functional. A general note: The purpose of a counterscreen is to sort out artefacts and off-target activity.
The target of assay [4] is T4, Sentrin-specific protease 7 (Homo sapiens, UniProt Q9BQF6).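 Note: Luminescence-based dose-response confirmation of ultra-high-throughput screening hits, measuring inhibition of SENP7.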
T4 sequence (Q9BQF6 whole entry): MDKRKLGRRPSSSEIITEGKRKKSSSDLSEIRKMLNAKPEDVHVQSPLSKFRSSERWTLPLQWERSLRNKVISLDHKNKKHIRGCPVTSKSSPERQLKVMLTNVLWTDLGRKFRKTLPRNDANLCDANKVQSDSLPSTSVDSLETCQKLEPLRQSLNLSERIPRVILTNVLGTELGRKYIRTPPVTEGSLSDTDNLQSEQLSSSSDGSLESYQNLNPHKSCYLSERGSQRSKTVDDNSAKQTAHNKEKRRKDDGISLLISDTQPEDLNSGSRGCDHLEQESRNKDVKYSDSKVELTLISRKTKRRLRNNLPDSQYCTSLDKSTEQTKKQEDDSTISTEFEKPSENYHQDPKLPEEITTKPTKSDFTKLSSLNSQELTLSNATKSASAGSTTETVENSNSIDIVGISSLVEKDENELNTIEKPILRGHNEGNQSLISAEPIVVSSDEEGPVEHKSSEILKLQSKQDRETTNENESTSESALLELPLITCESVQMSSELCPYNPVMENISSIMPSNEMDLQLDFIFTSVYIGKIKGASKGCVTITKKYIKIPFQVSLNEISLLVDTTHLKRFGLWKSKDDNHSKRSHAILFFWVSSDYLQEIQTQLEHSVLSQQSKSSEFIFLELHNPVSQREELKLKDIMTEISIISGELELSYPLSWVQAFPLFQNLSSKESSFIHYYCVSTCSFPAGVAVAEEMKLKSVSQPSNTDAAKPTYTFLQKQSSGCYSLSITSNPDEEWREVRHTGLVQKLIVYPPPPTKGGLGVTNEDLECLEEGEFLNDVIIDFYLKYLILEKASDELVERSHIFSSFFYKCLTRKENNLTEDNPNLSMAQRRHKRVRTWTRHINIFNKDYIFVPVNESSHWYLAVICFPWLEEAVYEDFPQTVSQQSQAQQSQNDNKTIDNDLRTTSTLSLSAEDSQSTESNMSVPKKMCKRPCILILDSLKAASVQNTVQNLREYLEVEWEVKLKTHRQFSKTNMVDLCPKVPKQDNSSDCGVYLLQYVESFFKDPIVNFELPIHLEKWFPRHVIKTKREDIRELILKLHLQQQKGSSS
Format: functional.

The target of assay [5] is T5, Sentrin-specific protease 8 (Homo sapiens, UniProt Q96LD8).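 Note: luminescence read-out of SENP8 inhibition, dose-response confirmation following an ultra-high-throughput screen.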
T5 sequence (Q96LD8 whole entry): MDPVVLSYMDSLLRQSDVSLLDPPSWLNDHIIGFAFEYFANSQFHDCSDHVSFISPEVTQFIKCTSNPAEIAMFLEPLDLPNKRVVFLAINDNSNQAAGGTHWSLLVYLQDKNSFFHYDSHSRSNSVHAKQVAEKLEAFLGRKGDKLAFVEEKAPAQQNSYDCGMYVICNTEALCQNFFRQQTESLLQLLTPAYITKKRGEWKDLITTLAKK
Format: functional.

The target of assay [6] is T6, Sentrin-specific protease 6 (Homo sapiens, UniProt Q9GZR1).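 Note: Luminescence-based dose-response confirmatory assay of SENP6 inhibition, following up an ultra-high-throughput screen.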
T6 sequence (Q9GZR1 whole entry): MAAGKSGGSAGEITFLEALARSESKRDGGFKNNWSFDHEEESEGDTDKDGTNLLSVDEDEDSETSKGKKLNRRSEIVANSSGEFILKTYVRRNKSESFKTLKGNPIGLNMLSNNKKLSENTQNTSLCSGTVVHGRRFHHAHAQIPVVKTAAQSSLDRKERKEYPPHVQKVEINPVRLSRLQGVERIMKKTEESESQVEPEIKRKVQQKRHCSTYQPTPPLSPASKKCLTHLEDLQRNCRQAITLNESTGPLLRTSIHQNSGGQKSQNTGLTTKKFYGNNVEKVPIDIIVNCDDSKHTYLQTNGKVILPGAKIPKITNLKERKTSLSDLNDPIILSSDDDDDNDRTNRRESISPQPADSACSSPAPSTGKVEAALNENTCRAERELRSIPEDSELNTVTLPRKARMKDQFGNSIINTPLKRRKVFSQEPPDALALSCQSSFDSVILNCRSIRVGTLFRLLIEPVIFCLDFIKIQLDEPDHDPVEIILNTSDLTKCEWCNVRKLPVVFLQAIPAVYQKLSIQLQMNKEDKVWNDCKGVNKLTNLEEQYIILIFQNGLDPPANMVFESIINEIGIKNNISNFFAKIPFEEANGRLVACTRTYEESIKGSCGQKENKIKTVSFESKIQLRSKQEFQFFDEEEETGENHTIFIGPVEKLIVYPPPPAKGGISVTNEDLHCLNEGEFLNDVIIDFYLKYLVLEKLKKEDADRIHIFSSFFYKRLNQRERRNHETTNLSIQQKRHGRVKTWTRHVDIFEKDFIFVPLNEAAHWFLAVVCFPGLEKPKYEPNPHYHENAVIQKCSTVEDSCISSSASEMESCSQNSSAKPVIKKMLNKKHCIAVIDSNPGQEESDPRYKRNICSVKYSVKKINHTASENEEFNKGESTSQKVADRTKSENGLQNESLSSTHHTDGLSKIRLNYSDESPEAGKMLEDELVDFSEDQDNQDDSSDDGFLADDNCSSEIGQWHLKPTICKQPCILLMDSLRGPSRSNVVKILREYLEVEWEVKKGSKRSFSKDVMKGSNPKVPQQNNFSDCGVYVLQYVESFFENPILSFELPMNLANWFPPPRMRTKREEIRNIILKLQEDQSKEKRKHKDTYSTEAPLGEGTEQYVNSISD
The assay is classed as functional.

The target in another assay is T7, Caspase-3 (Homo sapiens, UniProt P42574).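 Note: Dose-response selectivity test against caspase-3 for candidate inhibitors of sentrin-specific proteases (SENPs).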
T7 sequence (P42574 whole entry): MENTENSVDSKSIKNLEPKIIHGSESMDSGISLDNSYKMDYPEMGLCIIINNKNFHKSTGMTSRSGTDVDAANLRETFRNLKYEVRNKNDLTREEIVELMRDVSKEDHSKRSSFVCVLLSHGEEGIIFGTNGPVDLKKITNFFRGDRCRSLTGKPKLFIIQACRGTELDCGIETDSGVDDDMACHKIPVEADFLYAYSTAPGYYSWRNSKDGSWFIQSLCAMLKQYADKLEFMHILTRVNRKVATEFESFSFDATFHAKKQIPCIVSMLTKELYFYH
The assay is classed as functional.

The test system of the next assay is HeLa. As to the kind of experiment: HeLa cell cytotoxicity, dose response, cytotoxicity control for MITF activator project, CellTiter-Glo luminescence, cherry-pick samples (AID 540259). Format: functional, cell-based. To be noted: Homo sapiens. On the technique in general: Cellular ATP, detected with luciferase, serves as a proxy for viable cell number.
Another assay relates to HEK293. As to the kind of experiment: cells. Particulars: Homo sapiens. Format: functional, cell-based.
Assay [7] deals with T8, Nuclear receptor subfamily 0 group B member 1 (Homo sapiens, UniProt P51843).
T8 sequence (P51843 whole entry): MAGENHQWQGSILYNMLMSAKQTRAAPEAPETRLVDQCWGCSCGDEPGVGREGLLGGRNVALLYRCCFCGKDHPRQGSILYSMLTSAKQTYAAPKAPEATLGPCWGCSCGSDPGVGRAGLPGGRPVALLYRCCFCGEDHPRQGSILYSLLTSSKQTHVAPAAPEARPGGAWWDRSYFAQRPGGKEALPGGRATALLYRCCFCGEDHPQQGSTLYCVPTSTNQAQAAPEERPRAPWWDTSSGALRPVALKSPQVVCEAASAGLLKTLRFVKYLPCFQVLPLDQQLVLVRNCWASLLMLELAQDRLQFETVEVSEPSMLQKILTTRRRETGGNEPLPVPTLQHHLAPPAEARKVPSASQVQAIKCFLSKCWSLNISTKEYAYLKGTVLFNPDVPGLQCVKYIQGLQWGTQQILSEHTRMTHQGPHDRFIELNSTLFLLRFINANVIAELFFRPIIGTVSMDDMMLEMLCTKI
As to the kind of experiment: Luminescence-based cell-based high throughput dose response assay for inhibitors of the orphan nuclear receptor subfamily 0, group B, member 1 (DAX1; NR0B1). [Related pubchem assays (depositor defined):AID504766, AID504790]. Format: functional.

The target of another assay is Cytochrome P450 2D6 (Homo sapiens, UniProt P10635).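 Note: CYP2D6 member of a cytochrome P450 panel assay.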
The target of a further assay is Cytochrome P450 3A4 (Homo sapiens, UniProt P08684).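 Note: CYP3A4 tested as one member of a cytochrome P450 panel screen.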
Cytochrome P450 3A4, sequence (P08684 whole entry): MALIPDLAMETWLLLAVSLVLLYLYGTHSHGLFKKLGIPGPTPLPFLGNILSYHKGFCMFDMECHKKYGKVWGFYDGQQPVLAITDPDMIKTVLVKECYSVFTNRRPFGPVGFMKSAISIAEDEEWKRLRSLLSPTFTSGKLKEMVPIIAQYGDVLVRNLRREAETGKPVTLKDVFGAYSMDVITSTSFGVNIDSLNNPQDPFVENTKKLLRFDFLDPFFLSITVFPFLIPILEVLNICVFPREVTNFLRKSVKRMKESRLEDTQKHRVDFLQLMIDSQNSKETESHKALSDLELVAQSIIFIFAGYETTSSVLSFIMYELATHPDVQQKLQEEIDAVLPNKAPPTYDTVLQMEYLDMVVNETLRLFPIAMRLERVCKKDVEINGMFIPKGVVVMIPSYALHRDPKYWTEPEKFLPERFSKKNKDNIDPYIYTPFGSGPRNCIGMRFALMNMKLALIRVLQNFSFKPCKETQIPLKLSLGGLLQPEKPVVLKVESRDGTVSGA

Beta-galactosidase, sequence (Q8VNN2 whole entry): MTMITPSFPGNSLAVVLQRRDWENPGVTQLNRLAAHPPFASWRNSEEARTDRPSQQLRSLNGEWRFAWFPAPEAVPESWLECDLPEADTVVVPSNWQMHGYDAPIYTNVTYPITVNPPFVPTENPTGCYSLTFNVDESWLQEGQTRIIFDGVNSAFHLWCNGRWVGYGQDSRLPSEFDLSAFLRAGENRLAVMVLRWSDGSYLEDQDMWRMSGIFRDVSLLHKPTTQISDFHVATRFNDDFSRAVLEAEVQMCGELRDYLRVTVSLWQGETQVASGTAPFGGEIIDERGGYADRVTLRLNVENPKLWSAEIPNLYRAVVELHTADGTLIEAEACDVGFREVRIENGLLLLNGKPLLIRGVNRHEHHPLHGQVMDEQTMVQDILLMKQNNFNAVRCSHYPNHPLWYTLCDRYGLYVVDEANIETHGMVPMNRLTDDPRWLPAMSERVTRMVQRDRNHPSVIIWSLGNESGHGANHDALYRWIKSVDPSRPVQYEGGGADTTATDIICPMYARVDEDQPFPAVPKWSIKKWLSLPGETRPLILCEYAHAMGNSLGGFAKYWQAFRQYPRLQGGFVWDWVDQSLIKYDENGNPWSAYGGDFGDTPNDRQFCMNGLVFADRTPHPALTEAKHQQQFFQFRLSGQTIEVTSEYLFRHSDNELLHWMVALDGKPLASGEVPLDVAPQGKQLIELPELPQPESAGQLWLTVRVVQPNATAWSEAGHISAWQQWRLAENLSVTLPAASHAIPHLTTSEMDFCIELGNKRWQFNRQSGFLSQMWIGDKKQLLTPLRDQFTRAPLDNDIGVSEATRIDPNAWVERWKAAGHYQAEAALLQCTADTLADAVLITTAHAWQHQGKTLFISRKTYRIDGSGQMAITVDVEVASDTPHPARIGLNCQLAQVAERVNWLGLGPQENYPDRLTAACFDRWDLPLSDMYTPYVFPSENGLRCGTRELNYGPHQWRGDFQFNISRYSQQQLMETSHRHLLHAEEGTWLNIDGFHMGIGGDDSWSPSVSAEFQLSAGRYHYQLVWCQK
Phospholipase A2, sequence (P04054 whole entry): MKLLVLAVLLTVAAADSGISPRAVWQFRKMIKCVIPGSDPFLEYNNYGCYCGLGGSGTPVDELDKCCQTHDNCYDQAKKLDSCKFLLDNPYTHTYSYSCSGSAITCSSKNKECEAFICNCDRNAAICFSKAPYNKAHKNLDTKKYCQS
Cytochrome P450 2D6, sequence (P10635 whole entry): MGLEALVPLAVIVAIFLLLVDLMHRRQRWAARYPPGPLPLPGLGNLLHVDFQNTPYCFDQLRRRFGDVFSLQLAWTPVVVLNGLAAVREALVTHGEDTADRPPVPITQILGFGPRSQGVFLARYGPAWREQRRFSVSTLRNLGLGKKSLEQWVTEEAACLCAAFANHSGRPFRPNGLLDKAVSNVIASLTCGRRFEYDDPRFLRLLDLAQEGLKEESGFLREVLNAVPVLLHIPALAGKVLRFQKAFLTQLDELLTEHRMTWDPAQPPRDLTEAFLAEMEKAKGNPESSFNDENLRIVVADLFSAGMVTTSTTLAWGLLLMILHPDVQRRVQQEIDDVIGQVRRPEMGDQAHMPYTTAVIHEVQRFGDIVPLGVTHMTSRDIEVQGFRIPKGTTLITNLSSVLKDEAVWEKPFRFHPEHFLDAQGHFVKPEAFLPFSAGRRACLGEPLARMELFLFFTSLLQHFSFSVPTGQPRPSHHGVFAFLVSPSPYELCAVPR

For the compound `CCC(C)N(C(=O)COc1ccc(Br)cc1C=O)C1CCS(=O)(=O)C1` (stereo not given), the IC50 on Cysteine protease ATG4B is 10.1 µM (active); at Phospholipase A2, 8.26 µM (active).
For the compound `Cc1ccc(C(=O)NN=C(S)Nc2cccc(Cl)c2Cl)cc1[N+](=O)[O-]`, the IC50 is 20.8 µM (inactive) on Cysteine protease ATG4B and 13.3 µM (active) on Phospholipase A2.
In the case of `O=C(COC(=O)c1cnccn1)c1ccc(Cl)c([N+](=O)[O-])c1`, the EC50 at Beta-galactosidase was > 40 µM (inactive). Besides, the half-inhibitory concentration (IC50) in assay [1] was 12.5 µM (active).
On to `CCCC(=O)NC(=S)Nc1cccc(Cl)c1N1CCCCC1`, for which the IC50 on Cysteine protease ATG4B is 9.11 µM (active); at Phospholipase A2, 6.52 µM (active).
On to `COc1ccc(C)cc1Nc1n[n+](-c2ccccc2)c(-c2cc([N+](=O)[O-])cc(OC)c2O)s1`, for which the results for the EC50 in assay [2] and in assay [3] were 23.5 µM (inactive) and 58.4 µM (inactive), respectively.
Take `FC(F)(F)c1cnc(NNC(=S)Nc2cccnc2)c(Cl)c1`: the EC50 at Beta-galactosidase is > 40 µM (inactive). For the same compound, the IC50 in assay [1] was 15.1 µM (active).
As to `Cc1ccc(C)c(NC(=O)c2cc(-c3cc(C)ccc3O)[nH]n2)c1`, the IC50 in assay [4] is 5.17 µM (active); in assay [5] it was > 100 µM (inactive); in [6], > 100 µM (inactive); on Caspase-3, 22.3 µM (active). Also, the AC50 with HeLa was 41.9 µM (active).
As for `Cc1noc(C)c1S(=O)(=O)N1CCN(S(=O)(=O)c2ccccc2C#N)CC1`, the IC50 (in the assay on HEK293; in [7]) was > 67.5 µM (inactive) throughout.
On to `Cc1ccc(C(=O)COC(=O)CNC(=O)c2ccc(Br)o2)cc1[N+](=O)[O-]`, for which the EC50 on Beta-galactosidase is > 40 µM (inactive). Besides, the IC50 in assay [1] is given as > 40 µM (not active).
Turning to `Cc1cc(C)c(NC(=O)C2CCCN2C)c(C)c1` (stereo not given), the IC50 (in the assay with HEK293; in [7]) was > 67.3 µM (inactive) throughout. The AC50 on Cytochrome P450 2D6 is 28.2 µM (inconclusive); on Cytochrome P450 3A4, 25.1 µM (inconclusive).

As usually defined, the IC50 is the concentration needed to halve the response being measured. By EC50 is commonly meant the concentration that produces a half-maximal response. Broadly, the AC50 is the midpoint of the concentration-response curve, whichever way the signal moves.
